Assay results as given in patent US11230538B2, “Herbicides” (SYNGENTA PARTICIPATIONS AG, priority 2016, dated 2022).

Experiments:
Assay type in all cases: in vivo
[1] = tested on: Alopecurus myosuroides (ALOMY); experiment: B1 Pre-emergence herbicidal activity; design: key: 5=total damage to plant; 0=no damage to plant; conditions: pre-emergence application, evaluated after 13 days
In short: (§1)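 Sow in soil → 1 d glasshouse (24/16 °C, 14 h light, 65% RH) → spray pre-emergence (acetone/water 50:50, 0.5% Tween 20) → grow 13 d, water twice daily → score 0–5 (5 = total damage).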

[2] = tested on: Avena fatua (AVEFA); experiment: B1 Pre-emergence herbicidal activity; design: key: 5=total damage to plant; 0=no damage to plant; conditions: pre-emergence application, evaluated after 13 days
In short: as §1

[3] = tested on: Triticum aestivium (TRZAW); experiment: B1 Pre-emergence herbicidal activity; design: key: 5=total damage to plant; 0=no damage to plant; conditions: pre-emergence application, evaluated after 13 days
In short: as §1

[4] = tested on: Echinochloa crus-galli (ECHCG); experiment: B1 Pre-emergence herbicidal activity; design: key to Pre-emergence herbicidal activity, ECHCG (damage score 0-5): 5=total damage to plant; 0=no damage to plant; conditions: pre-emergence application, evaluated after 13 days
In short: as §1

[5] = tested on: Lolium perenne (LOLPE); experiment: B1 Pre-emergence herbicidal activity; design: key to Pre-emergence herbicidal activity, LOLPE (damage score 0-5): 5=total damage to plant; 0=no damage to plant; conditions: pre-emergence application, evaluated after 13 days
In short: as §1

[6] = tested on: Setaria fabenr (SETFA); experiment: B1 Pre-emergence herbicidal activity; design: key to Pre-emergence herbicidal activity, SETFA (damage score 0-5): 5=total damage to plant; 0=no damage to plant; conditions: pre-emergence application, evaluated after 13 days
In short: as §1

[7] = tested on: Avena fatua (AVEFA); experiment: B2 Post-emergence herbicidal activity; conditions: post-emergence application, evaluated after 13 days
In short: (§2)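 Test seeds are sown in standard soil and raised for 8 days under controlled glasshouse conditions (24/16 °C, 14 h light, 65% humidity). Foliage is then sprayed with compound formulated in 50:50 acetone/water plus 0.5% Tween 20, and plants are rated 0–5 for damage after 13 days.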

[8] = tested on: Echinochloa crus-galli (ECHCG); experiment: B2 Post-emergence herbicidal activity; design: key to Post-emergence herbicidal activity, ECHCG (damage score 0-5): 5=total damage to plant; 0=no damage to plant; conditions: post-emergence application, evaluated after 13 days
In short: as §2

[9] = tested on: Lolium perenne (LOLPE); experiment: B2 Post-emergence herbicidal activity; conditions: post-emergence application, evaluated after 13 days
In short: as §2

[10] = tested on: Alopecurus myosuroides (ALOMY); experiment: B2 Post-emergence herbicidal activity; design: key: 5=total damage to plant; 0=no damage to plant; conditions: post-emergence application, evaluated after 13 days
In short: as §2

[11] = tested on: Setaria fabenri (SETFA); experiment: B2 Post-emergence herbicidal activity; design: key: 5=total damage to plant; 0=no damage to plant; conditions: post-emergence application, evaluated after 13 days
In short: as §2

[12] = tested on: Triticum aestivium (TRZAW); experiment: B2 Post-emergence herbicidal activity; design: key: 5=total damage to plant; 0=no damage to plant; conditions: post-emergence application, evaluated after 13 days
In short: as §2

SMILES | Pre-emergence herbicidal activity, ALOMY (damage score 0-5) ([1]; rate 1000 g/ha) | Pre-emergence herbicidal activity, AVEFA (damage score 0-5) ([2]; rate 1000 g/ha) | Pre-emergence herbicidal activity, TRAZW (damage score 0-5) ([3]; rate 1000 g/ha) | Pre-emergence herbicidal activity, ECHCG (damage score 0-5) ([4]; rate 1000 g/ha) | Pre-emergence herbicidal activity, LOLPE (damage score 0-5) ([5]; rate 1000 g/ha) | Pre-emergence herbicidal activity, SETFA (damage score 0-5) ([6]; rate 1000 g/ha) | Post-emergence herbicidal activity, AVEFA (damage score 0-5) ([7]; rate 1000 g/ha) | Post-emergence herbicidal activity, ECHCG (damage score 0-5) ([8]; rate 1000 g/ha) | Post-emergence herbicidal activity, LOLPE (damage score 0-5) ([9]; rate 1000 g/ha) | Post-emergence herbicidal activity, ALOMY (damage score 0-5) ([10]; rate 1000 g/ha) | Post-emergence herbicidal activity, SETFA (damage score 0-5) ([11]; rate 1000 g/ha) | Post-emergence herbicidal activity, TRAZW (damage score 0-5) ([12]; rate 1000 g/ha) | also measured
CCC(=O)Nc1ccc(-c2cncc(F)c2)nc1C#N [Compound C115] | 0 | 0 | 0 | 5 | 1 | 5 | 2 | 4 | 1 | 0 | 5 | 0 | –
O=C(Nc1ccc(-c2cncc(F)c2)nc1C(F)(F)F)c1nccs1 [Compound C117] | – | – | – | – | – | – | – | – | – | – | – | – | Pre-emergence herbicidal activity, ALOMY (damage score 0-5) ([1]; rate 250 g/ha): 0; Pre-emergence herbicidal activity, AVEFA (damage score 0-5) ([2]; rate 250 g/ha): 0; Pre-emergence herbicidal activity, TRAZW (damage score 0-5) ([3]; rate 250 g/ha): 0; Pre-emergence herbicidal activity, ECHCG (damage score 0-5) ([4]; rate 250 g/ha): 1; Pre-emergence herbicidal activity, LOLPE (damage score 0-5) ([5]; rate 250 g/ha): 0; Pre-emergence herbicidal activity, SETFA (damage score 0-5) ([6]; rate 250 g/ha): 2; Post-emergence herbicidal activity, AVEFA (damage score 0-5) ([7]; rate 250 g/ha): 3; Post-emergence herbicidal activity, ECHCG (damage score 0-5) ([8]; rate 250 g/ha): 1; Post-emergence herbicidal activity, LOLPE (damage score 0-5) ([9]; rate 250 g/ha): 1; Post-emergence herbicidal activity, ALOMY (damage score 0-5) ([10]; rate 250 g/ha): 1; Post-emergence herbicidal activity, SETFA (damage score 0-5) ([11]; rate 250 g/ha): 4; Post-emergence herbicidal activity, TRAZW (damage score 0-5) ([12]; rate 250 g/ha): 0
COC(=O)CCC(=O)N(C(=O)CCC(=O)OC)c1ccc(-c2cncc(F)c2)nc1C(F)(F)F [Compound C119] | 0 | 2 | 0 | 5 | 1 | 5 | 4 | 5 | 3 | 1 | 5 | 3 | –
O=C(Nc1ccc(-c2cncc(F)c2)nc1C(F)(F)F)c1cncnc1 [Compound C120, N-[6-(5-fluoro-3-pyridyl)-2-(trifluoromethyl)-3-pyridyl]pyrimidine-5-carboxamide] | 0 | 3 | 0 | 4 | 1 | 5 | 3 | 5 | 3 | 1 | 5 | 2 | –
